Measurements as given in patent US9765105B2, “Macrolide compound” (Pulike Biological Engineering, Inc., priority 2013, dated 2017).

Columns and labels:
[1] = system: Staphylococcus aureus CVCC26003; assay: in vitro susceptibility, MIC by mini broth dilution; type: cell-based; details: strain CVCC26003
In short: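 MICs were determined by mini broth dilution under NCCLS standards in CAMHB, using revived S. aureus CVCC26003 subcultured 20 h at 35° C. Compounds were two-fold serially diluted in DMSO across 11 wells, with duplicate rows. Bacterial suspension was diluted 1:200 in medium before inoculation.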

[2] = system: Actinobacillus pleuropneumoniae CVCC262; assay: as above; type: cell-based; details: strain CVCC262
In short: (§1)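 MICs determined by mini broth dilution following NCCLS standards, using two-fold serial dilutions of compound in DMSO across 11 gradients, in duplicate rows. Strains were revived and subcultured at 35 °C for 20 h. Bacterial suspension was diluted 1:200 in liquid medium.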

[3] = system: Haemophilus parasuis; assay: as above; type: cell-based
In short: as §1

[4] = system: Pasteurella multocida CVCC399; assay: as above; type: cell-based; details: strain CVCC399
In short: as §1

[5] = system: Streptococcus equines CVCC556; assay: as above; type: cell-based; details: strain CVCC556
In short: as §1

[6] = system: Streptococcus pneumoniae CMCC 31203; assay: in vivo antibacterial test, survival of infected mice; parameters: species or system BALB/c mice; details: medicament control group; Tulathromycin 10 mg per kg after infection; observed until the seventh day
[7] = acute toxicity test, single gastric perfusion; type: in vivo, Balb/c mice; details: 2000 mg/kg once by gastric perfusion, 85 mg/ml suspension; deaths after 6 h
Source text: The marked parts of mice in the Syzx-24 group were respectively left hinder limbs (female), necks (female), right hinder limbs (male), and necks (male). The mice in the solvent control group were not marked.

[8] = orally intoxicated mice; reported; cited from earlier work
[9] = acute oral toxicity test, LD50 by improved karber method; details: per os, gavaged once, in 0.2% sodium carboxymethylcellulose; observed 7 days

CCCNC[C@]1(O)[C@H](C)O[C@@H](O[C@H]2[C@H](C)[C@@H](O[C@@H]3O[C@H](C)C[C@H](N(C)C)[C@H]3O)[C@](C)(O)C[C@@H](C)CN[C@H](C)[C@@H](O)[C@](C)(O)[C@@H](CC)OC(=O)[C@@H]2C)C[C@@]1(C)OC [Tulathromycin, reference compound]
MIC values, Staphylococcus aureus CVCC26003 [1]: 0.25 ug/mi | MIC values, Actinobacillus pleuropneumoniae CVCC262 [2]: 0.25 ug/mi | MIC values, Haemophilus parasuis [3]: 0.25 ug/mi | MIC values, Pasteurella multocida CVCC399 [4]: 0.25 ug/mi | MIC values, Streptococcus equines CVCC556 [5]: 0.25 ug/mi | Animal survival rate [6]: 70% | Animal survival rate (surviving/total animals) [6]: 7/10 | Death rate [7]: 75% | Number of dead animals/total number of animals [7]: 3/4 (2 female and 1 male) | minimum lethal dose [8]: higher than 2000 mg/kg·d-1 | LD50 [9]: 2379.2 mg/kg
